# According to US6469001B1, “IL-5 inhibiting 6-azauracil derivatives” (priority 1998, dated 2002):
# Test system: IL-5 production in human blood
# Experiment: in vitro inhibition of IL-5 production in human blood (whole blood stimulated with phytohemagglutinin, IL-5 by ELISA)
# Format: cell-based
# Conditions: test dose 1×10^−6 M, phytohemagglutinin HA17 stimulation, 48 hours, read-out: % inh. (percentage inhibition of IL-5 production)
# Procedure: in vitro Inhibition of IL-5 Production in Human Blood
# Human Whole Blood Stimulation
# Peripheral blood from healthy male donors was drawn into heparinized syringes (12.5 U heparin/ml). Blood samples were three-fold diluted in RMPI 1640 medium (Life Technologies, Belgium) supplemented with 2 mM L-glutamine, 100 U/ml penicillin and […] streptomycin, and […] fractions were distributed in 24-well multidisc plates. Blood samples were preincubated (60 minutes at 37° C.) in a humidified 6% CO2-atmosphere with 100 ml of drug solvent (final concentration 0.02% dimethylsulfoxide in RPMI 1640) or with 100 ml of an appropriate dose of test compound before being stimulated by the addition of […] of phytohemagglutinin HA17 (Murex, UK) at a final concentration of […]. After 48 hours, cell-free supernatant fluids were collected by centrifugation and stored at −70° C. until tested for the presence of IL-5.
# IL-5 measurements were conducted as described in Van Wauwe et al. (1996, Inflamm Res, 45, 357-363) on page 358 using ELISA.
# Table 1 lists the percentage inhibition of IL-5 production (column “% inh”) at a test dose of 1×10^−6 M for the compounds of the present invention.
row,Structure (SMILES),inhibition at 1 µM [%]
1,CS(=O)(=O)c1ccc(C2(C(N)=S)CCc3cc(-n4ncc(=O)[nH]c4=O)ccc32)cc1 (centres unmarked) [Compound 6],6
2,Cc1sc(C2(c3ccc(S(C)(=O)=O)cc3)CCc3cc(-n4ncc(=O)[nH]c4=O)ccc32)nc1-c1ccccc1 (centres unmarked) [Compound 7],39
